Data reported in paper PMC7067379, “Mapping the S1 and S1’ subsites of cysteine proteases with new dipeptidyl nitrile inhibitors as trypanocidal agents” (PLoS Neglected Tropical Diseases, 2020).
Where two headings read alike, the source gives them in different places.

Experiments:
cathepsin S (CatS) = cathepsin S (CatS) (Homo sapiens, UniProt P25774); test: Cathepsin S enzyme inhibition; assay type: biochemical; settings: SD lower than 15%; read-out: pKi CatS (converted)
Method: (§1) Enzyme inhibition studies for Cz and LmCPB were performed as previously described for Cz. The experimental procedures are described in the Supporting Information (see chapter S3). Cathepsins B, L, S were assayed as reported.

cathepsin B (CatB) = cathepsin B (CatB) (Homo sapiens, UniProt P07858); test: Cathepsin B enzyme inhibition; assay type: biochemical; settings: for Ki: SD lower than 15%, read-out: pKi CatB (converted)
[1] = target: Leishmania mexicana CPB (LmCPB) (Leishmania mexicana, UniProt P36400); test: LmCPB enzyme inhibition; assay type: biochemical
Chain of Leishmania mexicana CPB (LmCPB) (P36400 126-443): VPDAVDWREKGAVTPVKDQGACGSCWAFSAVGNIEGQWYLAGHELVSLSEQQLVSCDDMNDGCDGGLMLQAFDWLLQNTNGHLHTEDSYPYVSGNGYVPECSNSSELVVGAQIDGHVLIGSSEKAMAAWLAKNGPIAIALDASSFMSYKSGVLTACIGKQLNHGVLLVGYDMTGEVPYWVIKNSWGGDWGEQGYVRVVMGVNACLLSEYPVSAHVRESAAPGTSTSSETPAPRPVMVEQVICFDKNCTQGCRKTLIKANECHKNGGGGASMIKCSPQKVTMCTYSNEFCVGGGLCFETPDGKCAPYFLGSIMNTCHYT
Method: as §1

[2] = target: T1, Human recombinant cathepsin K (Homo sapiens, UniProt P43235); test: Cathepsin K assay; assay type: biochemical; settings: for Ki: SD lower than 15%, read-out: pKi CatK (converted); for remaining activity at 10 µM: replicates = 2, n.i. = no inhibition observed at 10 μM, read-out: remaining activity (%) at 10 μM, CatK
T1 sequence (P43235 115-329): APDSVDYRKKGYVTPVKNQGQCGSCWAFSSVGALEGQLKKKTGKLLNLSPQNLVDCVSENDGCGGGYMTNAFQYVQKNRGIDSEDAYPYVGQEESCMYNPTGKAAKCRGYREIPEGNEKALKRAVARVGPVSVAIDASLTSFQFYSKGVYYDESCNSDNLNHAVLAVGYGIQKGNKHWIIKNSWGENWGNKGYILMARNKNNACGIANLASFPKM
Method: Human recombinant cathepsin K was assayed on a FLUOSTAR Optima plate reader at 25 °C with an excitation wavelength of 360 nm and an emission wavelength of 440 nm on a 96 well plate. The enzyme solution (23 μg/mL in 50 mM sodium acetate pH 5.5, 50 mM NaCl, 0.5 mM EDTA, 5 mM DTT) was diluted 1:100 with assay buffer (100 mM sodium citrate buffer pH 5.0, 100 mM NaCl, 1 mM EDTA, 0.01% CHAPS) containing 5 mM DTT and was then incubated at 37 °C for 30 min for activation. A 1.5 mM stock solution of the substrate Z-Leu-Arg-AMC was prepared in DMSO. […] The assay was performed with a final concentration of cathepsin K of 1.73 ng/mL. Stock solutions of inhibitors were prepared in DMSO. The final DMSO concentration was 2% (4 μL). Into a well containing 194.5 μL assay buffer, 0.8 μL of the fluorogenic substrate, DMSO and inhibitor solution (3.2 μL) were added. Upon addition of cathepsin K (1.5 μL), the measurement was started and followed for 20 min.

cathepsin L (CatL) = cathepsin L (CatL) (Homo sapiens, UniProt P07711); test: Cathepsin L enzyme inhibition; assay type: biochemical; settings: SD lower than 15%; read-out: pKi CatL (converted)
Chain of cathepsin L (CatL) (P07711 114-333): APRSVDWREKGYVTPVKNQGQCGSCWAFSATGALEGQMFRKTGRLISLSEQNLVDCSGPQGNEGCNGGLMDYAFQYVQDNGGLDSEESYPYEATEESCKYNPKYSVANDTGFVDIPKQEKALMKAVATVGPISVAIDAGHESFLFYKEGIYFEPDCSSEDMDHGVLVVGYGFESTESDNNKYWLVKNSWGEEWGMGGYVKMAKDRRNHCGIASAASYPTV

[3] = Mammalian cytotoxicity assay (MTT); assay type: cell-based; settings: rhesus monkey, LLCMK2 cells;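 further: Read-out is absorbance at 570 nm of formazan taken up in DMSO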
Method: LLCMK2 cells were cultured in 96-well plates at a concentration of 5 x 10^4 cells/ml. After 48 h, the plates were washed twice with PBS and 200 μL RPMI medium was added with serial dilutions of the compounds and benznidazole (1.95 μM to 250 μM) in triplicate. After 72 h at 37 °C, the cytotoxic activity of the compounds was determined by the classical MTT [3- (4,5-dimethylthiazol-2-yl) -2,5-diphenyltetrazolium bromide] method. Briefly, 50 μL MTT dissolved in PBS (2.0 mg mL^-1) was added to each well and the plates were incubated for 4 h at 37 °C. The formed formazan crystals were dissolved with DMSO (50 μL/well) and the absorbance of the samples was measured by spectrophotometer at 570 nm after 30 min.

recombinant cruzain (Cz) = recombinant cruzain (Cz) (Trypanosoma cruzi, UniProt P25779); test: Cruzain enzyme inhibition; assay type: biochemical
Chain of recombinant cruzain (Cz) (P25779 123-337): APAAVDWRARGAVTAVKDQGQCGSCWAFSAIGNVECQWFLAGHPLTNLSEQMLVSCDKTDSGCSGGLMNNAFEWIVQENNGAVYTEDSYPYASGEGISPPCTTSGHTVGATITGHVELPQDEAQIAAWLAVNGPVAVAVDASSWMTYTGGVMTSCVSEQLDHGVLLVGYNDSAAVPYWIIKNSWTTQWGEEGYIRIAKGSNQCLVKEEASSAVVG
Method: as §1

[4] = tested on: T. cruzi Tulahuen LacZ strain, intracellular amastigote forms; test: In vitro trypanocidal activity on intracellular amastigote forms (Tulahuen strain); assay type: cell-based, Trypanosoma cruzi; settings: for EC50: Trypanosoma cruzi, TULAHUEN; for SI (selective index): from EC50 (T. cruzi) and CC50 (LLCMK2)
Method: Cells were evaluated in 96-well plates. Cells from the LLCMK2 lineage were plated at a concentration of 5x10^4 cells mL^-1. Trypomastigote forms of the Tulahuen LacZ strain were added at a concentration of 5×10^5 parasites mL^-1 and placed in the incubator at 37°C with 5% CO2 for 24 h. After the incubation period, the trypomastigote forms present were removed by successive washes with PBS, remaining only as intracellular amastigote forms. Compounds were added at different concentrations (1.95 μM to 250 μM serial dilutions) and incubated for 72 h. At the end of this period, the substrate CPRG (chlorophenol red β-D-galactopyranoside, 400 μM in 0.3% Triton X-100, pH 7.4) was added. […] Benznidazole was used as a positive control in the same concentrations as the substances, and DMSO as a negative control. Compounds were solubilized in DMSO. The selectivity index (SI) was calculated using the formula: […]. All statistical analyses were done with the program GraphPad Prism v.5.

[5] = SD lower than 15%, read-out: pKi LmCPB (converted)
[6] = LLCMK2, 72 h, MTT, Table 2, read-out: CC50 cytotoxicity
[7] = SD lower than 15%, read-out: pKi Cz (converted)
[8] = 72 h, amastigote, Tulahuen strain, 72 h, Table 2, read-out: EC50 trypanocidal activity
[9] = read-out: pEC50, T. cruzi amastigote form (converted), S1 Table
[10] = S1 Table, maximum concentration used 250 µM, read-out: CC50
[11] = read-out: EC50 T. cruzi, S1 Table, maximum concentration used 250 µM
[12] = S1 Table, maximum concentration used 250 µM, read-out: EC50 T. cruzi
[13] = T. cruzi amastigote form, S1 Table, read-out: pEC50 (converted)

Chain of cathepsin S (CatS) (P25774 115-331): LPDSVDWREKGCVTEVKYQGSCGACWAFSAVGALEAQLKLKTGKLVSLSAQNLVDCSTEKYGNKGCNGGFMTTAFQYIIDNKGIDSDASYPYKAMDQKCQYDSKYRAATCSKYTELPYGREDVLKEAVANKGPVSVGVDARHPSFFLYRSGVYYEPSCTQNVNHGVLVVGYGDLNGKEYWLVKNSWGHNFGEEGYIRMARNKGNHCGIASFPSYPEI

SMILES	Ki (cathepsin S (CatS)) [nM]	Ki [1, 5] [nM]	Ki [2] [nM]	Ki (cathepsin L (CatL)) [nM]	CC50 at 72 h [3, 6] [nM]	Ki (recombinant cruzain (Cz); [7]) [nM]	EC50 [4, 8] [nM]	EC50 [4, 9] [nM]	SI (selective index) ([4]; Table 2)	Ki (cathepsin B (CatB)) [nM]	CC50 at 72 h [3, 10] [nM]	EC50 [4, 13] [nM]	also measured
Cn1nc(C(C)(C)C)cc1C(=O)N[C@@H](Cc1ccncc1)C(=O)NC1(C#N)CC1 [Compound 10, (S)-3-(tert-Butyl)-N-(1-((1-cyanocyclopropyl)amino)-1-oxo-3-(pyridin-4-yl)propan-2-yl)-1-methyl-1H-pyrazole-5-carboxamide]	2510	398	10000	25.1	> 100000	251	67600 ± 8220	63100	> 1.5				remaining activity at 10 µM (cathepsin B (CatB); 10 μM, replicates = 2, n.i. = no inhibition observed at 10 μM): 93%
CC(C)C[C@H](NC(=O)c1cc(C(C)(C)C)nn1C)C(=O)NC1(C#N)CC1 [Compound 11]	39.8	50.1	5.01	25.1		15.8		> 100000		31600	> 100000		difference in pKi, Cz (recombinant cruzain (Cz); relative to compound 9, sign not given, direction by cell colour or wording): 0.5; EC50 [4, 11]: > 100000 nM
C[C@@H](OCc1ccccc1)[C@H](NC(=O)c1cc(C(C)(C)C)nn1C)C(=O)NC1(C#N)CC1 [Compound 12, N-((2S,3R)-3-(Benzyloxy)-1-((1-cyanocyclopropyl)amino)-1-oxobutan-2-yl)-3-(tert-butyl)-1-methyl-1H-pyrazole-5-carboxamide]	1260	3160		1260	> 100000	7940	32700 ± 3860	31600	> 3.1	39800			melting point: 100 to 101 °C; remaining activity at 10 µM [2]: 96%
N#CC1(NC(=O)[C@H](Cc2ccccc2)NC(=O)c2ccnc3cc(Cl)ccc23)CC1 [Compound 13, (S)-7-Chloro-N-(1-((1-cyanocyclopropyl)amino)-1-oxo-3-phenylpropan-2-yl)quinoline-4-carboxamide]	200			63.1				> 100000		12600	> 100000		melting point: 260 to 262 °C; Ki [1]: 126 nM; remaining activity at 10 µM [2]: 81%; Ki (recombinant cruzain (Cz)): 200 nM; EC50 [4, 11]: > 100000 nM
Cn1nc(C(C)(C)C)cc1C(=O)N[C@@H](Cc1ccccc1)C(=O)N[C@H](C#N)Cc1ccncc1 [Compound 55, 3-(tert-Butyl)-N-((S)-1-(((S)-1-cyano-2-(pyridin-4-yl)ethyl)amino)-1-oxo-3-phenylpropan-2-yl)-1-methyl-1H-pyrazole-5-carboxamide]	63.1		316	5.01						15800	> 100000	> 100000	Ki [1]: 63.1 nM; Ki (recombinant cruzain (Cz)): 31.6 nM; EC50 [4, 12]: > 100000 nM
C[C@@H](OCc1ccccc1)[C@@H](C#N)NC(=O)[C@H](Cc1cccc(Cl)c1)NC(=O)c1cc(C(C)(C)C)nn1C [Compound 60, N-((S)-1-(((1R,2R)-2-(Benzyloxy)-1-cyanopropyl)amino)-3-(3-chlorophenyl)-1-oxopropan-2-yl)-3-(tert-butyl)-1-methyl-1H-pyrazole-5-carboxamide]	316	158	1000	7.94	> 100000	63.1	4900 ± 450		> 20	501	125000	5010	fold increase in trypanocidal potency ([4]; compared with compound 9): 14.5 fold
C[C@@H](O)[C@@H](C#N)NC(=O)[C@H](Cc1cccc(Cl)c1)NC(=O)c1cc(C(C)(C)C)nn1C [Compound 69, 3-(tert-butyl)-N-((S)-3-(3-chlorophenyl)-1-(((1R,2R)-1-cyano-2-hydroxypropyl)amino)-1-oxopropan-2-yl)-1-methyl-1H-pyrazole-5-carboxamide]	251	1000	794	6.31	> 100000	126	30600 ± 3110			6310		31600	EC50 [4, 12]: 30500 nM
